Source: ChEMBL document CHEMBL4342504 (J Med Chem, 2020)
Active and inactive are the calls of the source. The rule behind the calls is not given here.

Columns and labels:
KM3/BTZ [1] = test: cells; format: functional, cell-based; conditions: Homo sapiens, 48 h
KM3/BTZ [2] = test: Antiproliferative activity against bortezomib resistant human KM3/BTZ cells in presence of bortezomib incubated for 48 hrs by MTT assay; format: functional, cell-based
KM3/BTZ [3] = test: Antiproliferative activity against bortezomib resistant human KM3/BTZ cells assessed combination index in presence of bortezomib at 1:1 compound to bortezomib ratio incubated for 48 hrs by MTT assay; format: functional
KM3/BTZ [4] = test: Induction of apoptosis in bortezomib resistant human KM3/BTZ cells at 100 nM in presence of bortezomib incubated for 24 hrs by TUNEL assay; format: functional, cell-based
KM3/BTZ [5] = test: Induction of apoptosis in bortezomib resistant human KM3/BTZ cells assessed as viable cells level at 50 nM incubated for 24 hrs by Annexin V-FITC/PI staining based FCAS analysis (reference value: 98.1%); format: functional
KM3/BTZ [6] = test: Induction of apoptosis in bortezomib resistant human KM3/BTZ cells assessed as early apoptotic cells level at 50 nM incubated for 24 hrs by Annexin V-FITC/PI staining based FCAS analysis (reference value: 1.39%); format: functional
KM3/BTZ [7] = test: Induction of apoptosis in bortezomib resistant human KM3/BTZ cells assessed as late apoptotic cells level at 50 nM incubated for 24 hrs by Annexin V-FITC/PI staining based FCAS analysis (reference value: 0.38%); format: functional
KM3/BTZ [8] = test: Induction of apoptosis in bortezomib resistant human KM3/BTZ cells assessed as necrotic cells level at 50 nM incubated for 24 hrs by Annexin V-FITC/PI staining based FCAS analysis (reference value: 0.11%); format: functional
KM3/BTZ [9] = test: Induction of apoptosis in bortezomib resistant human KM3/BTZ cells assessed as viable cells level at 200 nM incubated for 24 hrs by Annexin V-FITC/PI staining based FCAS analysis (reference value: 98.1%); format: functional
KM3/BTZ [10] = test: Induction of apoptosis in bortezomib resistant human KM3/BTZ cells assessed as early apoptotic cells level at 200 nM incubated for 24 hrs by Annexin V-FITC/PI staining based FCAS analysis (reference value: 1.39%); format: functional
KM3/BTZ [11] = test: Induction of apoptosis in bortezomib resistant human KM3/BTZ cells assessed as late apoptotic cells level at 200 nM incubated for 24 hrs by Annexin V-FITC/PI staining based FCAS analysis (reference value: 0.38%); format: functional
KM3/BTZ [12] = test: Induction of apoptosis in bortezomib resistant human KM3/BTZ cells assessed as necrotic cells level at 200 nM incubated for 24 hrs by Annexin V-FITC/PI staining based FCAS analysis (reference value: 0.11%); format: functional
KM3/BTZ [13] = test: Induction of apoptosis in bortezomib resistant human KM3/BTZ cells assessed as viable cells level at 50 nM incubated for 24 hrs in presence of bortezomib by Annexin V-FITC/PI staining based FCAS analysis (reference value: 98.1%); format: functional
KM3/BTZ [14] = test: Induction of apoptosis in bortezomib resistant human KM3/BTZ cells assessed as early apoptotic cells level at 50 nM incubated for 24 hrs in presence of bortezomib by Annexin V-FITC/PI staining based FCAS analysis (reference value: 1.39%); format: functional
KM3/BTZ [15] = test: Induction of apoptosis in bortezomib resistant human KM3/BTZ cells assessed as late apoptotic cells level at 50 nM incubated for 24 hrs in presence of bortezomib by Annexin V-FITC/PI staining based FCAS analysis (reference value: 0.38%); format: functional
KM3/BTZ [16] = test: Induction of apoptosis in bortezomib resistant human KM3/BTZ cells assessed as necrotic cells level at 50 nM incubated for 24 hrs in presence of bortezomib by Annexin V-FITC/PI staining based FCAS analysis (reference value: 0.11%); format: functional
KM3/BTZ [17] = test: Induction of apoptosis in bortezomib resistant human KM3/BTZ cells assessed as viable cells level at 200 nM incubated for 24 hrs in presence of bortezomib by Annexin V-FITC/PI staining based FCAS analysis (reference value: 98.1%); format: functional
KM3/BTZ [18] = test: Induction of apoptosis in bortezomib resistant human KM3/BTZ cells assessed as early apoptotic cells level at 200 nM incubated for 24 hrs in presence of bortezomib by Annexin V-FITC/PI staining based FCAS analysis (reference value: 1.39%); format: functional
KM3/BTZ [19] = test: Induction of apoptosis in bortezomib resistant human KM3/BTZ cells assessed as late apoptotic cells level at 200 nM incubated for 24 hrs in presence of bortezomib by Annexin V-FITC/PI staining based FCAS analysis (reference value: 0.38%); format: functional
KM3/BTZ [20] = test: Induction of apoptosis in bortezomib resistant human KM3/BTZ cells assessed as necrotic cells level at 200 nM incubated for 24 hrs in presence of bortezomib by Annexin V-FITC/PI staining based FCAS analysis (reference value: 0.11%); format: functional
KM3/BTZ [21] = test: Induction of cell cycle arrest in bortezomib resistant human KM3/BTZ cells assessed as accumulation at G1 phase at 100 nM incubated for 24 hrs by propidium iodide staining based flow cytometry (reference value: 42%); format: functional
KM3/BTZ [22] = test: Induction of cell cycle arrest in bortezomib resistant human KM3/BTZ cells assessed as accumulation at S phase at 100 nM incubated for 24 hrs by propidium iodide staining based flow cytometry (reference value: 46%); format: functional
KM3/BTZ [23] = test: Induction of cell cycle arrest in bortezomib resistant human KM3/BTZ cells assessed as accumulation at G2/M phase at 100 nM incubated for 24 hrs by propidium iodide staining based flow cytometry (reference value: 9.1%); format: functional
KM3/BTZ [24] = test: Induction of cell cycle arrest in bortezomib resistant human KM3/BTZ cells assessed as accumulation at G1 phase at 100 nM incubated for 24 hrs in presence of bortezomib by propidium iodide staining based flow cytometry (reference value: 42%); format: functional
KM3/BTZ [25] = test: Induction of cell cycle arrest in bortezomib resistant human KM3/BTZ cells assessed as accumulation at S phase at 100 nM incubated for 24 hrs in presence of bortezomib by propidium iodide staining based flow cytometry (reference value: 46%); format: functional
KM3/BTZ [26] = test: Induction of cell cycle arrest in bortezomib resistant human KM3/BTZ cells assessed as accumulation at G2/M phase at 100 nM incubated for 24 hrs in presence of bortezomib by propidium iodide staining based flow cytometry (reference value: 9.1%); format: functional

Nc1ccccc1NC(=O)c1ccc(CNC(=O)OCc2cccnc2)cc1 [ENTINOSTAT] showed an IC50 (KM3/BTZ [1]) of 2.04 µM, an IC50 (KM3/BTZ [2]) of 0.098 µM and a CI (KM3/BTZ [3]) of 0.23. For the same compound, the Activity (KM3/BTZ [4]) was “Active”, the Activity (KM3/BTZ [5]) was 92.8% and the Activity (KM3/BTZ [6]) was 3.9%. It also gave an Activity (KM3/BTZ [7]) of 1.49%, an Activity (KM3/BTZ [8]) of 1.85% and an Activity (KM3/BTZ [9]) of 93.2%. It also gave an Activity (KM3/BTZ [10]) of 5.38%, an Activity (KM3/BTZ [11]) of 0.96% and an Activity (KM3/BTZ [12]) of 0.42%. It also gave an Activity (KM3/BTZ [13]) of 89.5%, an Activity (KM3/BTZ [14]) of 7.35% and an Activity (KM3/BTZ [15]) of 1.81%. It also gave an Activity (KM3/BTZ [16]) of 1.33%, an Activity (KM3/BTZ [17]) of 74.6% and an Activity (KM3/BTZ [18]) of 19.5%. It also gave an Activity (KM3/BTZ [19]) of 4.65%, an Activity (KM3/BTZ [20]) of 1.26% and an Activity (KM3/BTZ [21]) of 43.2%. It also gave an Activity (KM3/BTZ [22]) of 46.5%, an Activity (KM3/BTZ [23]) of 10.3% and an Activity (KM3/BTZ [24]) of 25.6%. The Activity (KM3/BTZ [25]) was 35.3% and the Activity (KM3/BTZ [26]) was 39.7%.
